In US4066772A, “1,3-Dihydro-1-[3-(1-piperidinyl)propyl]-2H-benzimidazol-2-ones and related compounds” (Janssen Pharmaceutica N.V., priority 1976, dated 1978):

Test system: apomorphine-induced vomiting in dogs
Assay: Apomorphine-induced vomiting test in dogs (antiemetic activity, subcutaneous)
Type: in vivo, beagle dogs
Details: Canis lupus familiaris, sc, 1 h, read-out: ED50 (dose which protects 50% of the animals from emesis), Table I

**Q.** `C=CCn1c(=O)n(CCCN2CCC3(CC2)C(=O)NCN3c2ccccc2)c2ccccc21` [L=CH2CHCH2, R1=H, R4=H, R5=H, 8-{3-[1,3-dihydro-2-oxo-3-(2-propenyl)-2H-benzimidazol-1-yl]propyl}-1-phenyl-1,3,8-triazaspiro[4,5]decan-4-one] was tested. Which ED50 did it give?
**A.** 0.25 mg/kg

**Q.** With `Cn1c(=O)n(CCCN2CCC3(CC2)C(=O)NCN3c2ccccc2)c2ccccc21` [L=CH3, R1=H, R4=H, R5=H, 8-[3-(1,3-dihydro-3-methyl-2-oxo-2H-benzimidazol-1-yl)propyl]-1-phenyl-1,3,8-triazaspiro[4,5]-decan-4-one] as the molecule, how does the ED50 read?
**A.** 0.08 mg/kg

**Q.** With `Cc1ccc2c(c1)[nH]c(=O)n2CCCN1CCC2(CC1)C(=O)NCN2c1ccccc1` [L=H, R1=5-CH3, R4=H, R5=H, 8-[3-(1,3-dihydro-5-methyl-2-oxo-2H-benzimidazol-1-yl)propyl]-1-phenyl-1,3,8-triazaspiro[4,5]decan-4-one] as the molecule, how does the ED50 read?
**A.** 0.06 mg/kg

**Q.** `O=C1NCN(c2ccc(F)cc2)C12CCN(CCCn1c(=O)[nH]c3cc(Cl)ccc31)CC2` [L=H, R1=5-Cl, R4=H, R5=4-F, 8-[3-(5-chloro-1,3-dihydro-2-oxo-2H-benzimidazol-1-yl)propyl]-1-(4-fluorophenyl)-1,3,8-triazaspiro[4,5]decan-4-one] was tested. Which ED50 did it give?
**A.** 0.015 mg/kg

**Q.** With `O=C1NCN(c2ccccc2)C12CCN(CCCn1c(=O)[nH]c3cc(Cl)ccc31)CC2` [L=H, R1=5-Cl, R4=H, R5=H, 8-[3-(5-chloro-1,3-dihydro-2-oxo-2H-benzimidazol-1-yl)propyl]-1-phenyl-1,3,8-triazaspiro[4,5]decan-4-one] as the molecule, how does the ED50 read?
**A.** 0.05 mg/kg

**Q.** With `CN1CN(c2ccccc2)C2(CCN(CCCn3c(=O)[nH]c4ccccc43)CC2)C1=O` [L=H, R1=H, R4=CH3, R5=H, 8-[3-(1,3-dihydro-2-oxo-2H-benzimidazol-1-yl)propyl]-3-methyl-1-phenyl-1,3,8-triazaspiro[4,5]decan-4-one] as the molecule, how does the ED50 read?
**A.** 0.015 mg/kg

**Q.** For `O=C1NCN(c2cccc(C(F)(F)F)c2)C12CCN(CCCn1c(=O)[nH]c3ccccc31)CC2` [L=H, R1=H, R4=H, R5=3-CF3, 8-[3-(2,3-dihydro-2-oxo-1H-benzimidazol-1-yl)propyl]-1-[3-(trifluoromethyl)phenyl]-1,3,8-triazaspiro[4,5]decan-4-one], which ED50 is on record?
**A.** 0.025 mg/kg

**Q.** How did the ED50 turn out when `O=C1NCN(c2ccc(F)cc2)C12CCN(CCCn1c(=O)[nH]c3ccccc31)CC2` [L=H, R1=H, R4=H, R5=4-F] was run?
**A.** 0.04 mg/kg

**Q.** `O=C1NCN(c2ccccc2)C12CCN(CCCn1c(=O)[nH]c3ccccc31)CC2` [L=H, R1=H, R4=H, R5=H, 8-[3-(1,3-dihydro-2-oxo-2H-benzimidazol-1-yl)propyl]-1-phenyl-1,3,8-triazaspiro[4,5]decan-4-one] was tested. Which ED50 did it give?
**A.** 0.03 mg/kg

Same assay, conditions: Canis lupus familiaris, sc, 1 h, read-out: ED50 (dose which protects 50% of the animals from emesis), Table II

**Q.** With `O=c1[nH]c2ccccc2n1CCCN1CCC(n2c(=O)[nH]c3cc(Cl)ccc32)CC1` [5-chloro-1-{1-[3-(1,3-dihydro-2-oxo-2H-benzimidazol-1-yl)propyl]-4-piperidinyl}-1,3-dihydro-2H-benzimidazol-2-one] as the molecule, how does the ED50 read?
**A.** 0.01 mg/kg

Same assay, conditions: Canis lupus familiaris, sc, 1 h, read-out: ED50 (dose which protects 50% of the animals from emesis), Table III

**Q.** Which ED50 does the source give for `C=CCn1c(=O)n(CCCN2CCC(O)(c3ccc(Cl)cc3)CC2)c2ccccc21` [L=CH2CHCH2, R8=4-Cl, R9=H, 1-{3-[4-(4-chlorophenyl) 4-hydroxy-1-piperidinyl]propyl}-1,3-dihydro-3-(2-propenyl)-2-H-benzimidazol-2-one] here?
**A.** 0.5 mg/kg

**Q.** For `O=c1[nH]c2ccccc2n1CCCN1CCC(O)(c2ccc(Cl)c(C(F)(F)F)c2)CC1` [L=H, R8=4-Cl, R9=3-CF3, 1-[3-{4-[4-chloro-3-(trifluoromethyl)phenyl]-4-hydroxy-1-piperidinyl}propyl]-1,3-dihydro-2H-benzimidazol-2-one], which ED50 is on record?
**A.** 0.015 mg/kg

**Q.** Which ED50 does the source give for `O=c1[nH]c2ccccc2n1CCCN1CCC(O)(c2ccc(Cl)cc2)CC1` [L=H, R8=4-Cl, R9=H, 1-{3-[4-(4-chlorophenyl)-4-hydroxy-1-piperidinyl]-propyl}-1,3-dihydro-2H-benzimidazol-2-one] here?
**A.** 0.06 mg/kg

Same assay, conditions: Canis lupus familiaris, sc, 1 h, read-out: ED50 (dose which protects 50% of the animals from emesis), Table IV

**Q.** `O=C1NCN(c2ccccc2)C12CCN(CCCn1cnc3ccccc31)CC2` was tested. Which ED50 did it give?
**A.** 0.25 mg/kg

Same assay, conditions: Canis lupus familiaris, sc, beagle dogs, apomorphine 0.31 mg/kg s.c. 1 hour after compound; read-out: ED50 (dose which protects 50% of the animals from emesis), Table II

**Q.** For `O=c1[nH]c2ccccc2n1CCCN1CC=C(n2c(=O)[nH]c3ccccc32)CC1` [L=H, R1=H, R2=H, R3=H, ring drawing 47, R7=H, 1-{3-[3,6-dihydro-4-(1,3-dihydro-2-oxo-2H-benzimidazol-1-yl)-1-(2H)-pyridinyl]propyl}-1,3-dihydro-2H-benzimidazol-2-one], which ED50 is on record?
**A.** 0.04 mg/kg

Same assay, conditions: Canis lupus familiaris, sc, beagle dogs, apomorphine 0.31 mg/kg s.c. 1 hour after compound; read-out: ED50 (dose which protects 50% of the animals from emesis), Table IV

**Q.** How did the ED50 turn out when `O=c1[nH]c2cc(Cl)ccc2n1C1CCN(CCCn2c(=S)[nH]c3ccccc32)CC1` was run?
**A.** 0.004 mg/kg

**Q.** `O=c1[nH]c2ccccc2n1CCCN1CCC(n2c(=S)[nH]c3ccccc32)CC1` was tested. Which ED50 did it give?
**A.** 0.025 mg/kg

**Q.** `O=c1[nH]c2ccccc2n1CCCN1CCC(n2c(=S)[nH]c3cc(Cl)ccc32)CC1` was tested. Which ED50 did it give?
**A.** 0.004 mg/kg
